# What was measured:
# Test in all cases: acetylesterase assay, absorbance at […] nm, plate reader
# Type in all cases: biochemical
# OafB-SPA^C-long = biological target: T1, OafB-SPA^C-long (Salmonella enterica, UniProt A0A0H2WM30); details: 40 uM enzyme (methods print OafB-STM^C-term), 0.5 mM substrate final, 37 C
# T1 construct: gene SPA0467; periplasmic C-terminal SGNH domain with full SGNHext, residues 377-640; codon-optimised gene; N-terminal His-MBP tag (3C-cleavable) removed; expressed in E. coli Origami
# OafB-SPA^C-short = biological target: T2, OafB-SPA^C-short (Salmonella enterica, UniProt A0A0H2WM30); details: 40 uM enzyme (methods print OafB-STM^C-term), 0.5 mM substrate final, 37 C; also acetyl donor for LPS acetylation
# T2 construct: gene SPA0467; periplasmic C-terminal SGNH domain with shortened SGNHext, residues 399-640; codon-optimised gene; N-terminal His-MBP tag (3C-cleavable) removed; expressed in E. coli Origami
# OafA-STM^C-short = biological target: T3, OafA-STM^C-short (Salmonella enterica, UniProt Q8ZNJ3); details: 10 uM enzyme, 0.5 mM substrate final, 37 C; also acetyl donor for LPS acetylation
# T3 construct: periplasmic C-terminal SGNH domain with shortened SGNHext, residues 379-609; N-terminal His-MBP tag (3C-cleavable) removed; expressed in E. coli Origami
# OafA-STM^C-long = biological target: T4, OafA-STM^C-long (Salmonella enterica, UniProt Q8ZNJ3); details: 10 uM enzyme, 0.5 mM substrate final, 37 C; also acetyl donor for LPS acetylation
# T4 construct: periplasmic C-terminal SGNH domain with full SGNHext, residues 366-609; N-terminal His-MBP tag (3C-cleavable) removed; expressed in E. coli Origami
# T4 sequence (Q8ZNJ3 entry or part of it): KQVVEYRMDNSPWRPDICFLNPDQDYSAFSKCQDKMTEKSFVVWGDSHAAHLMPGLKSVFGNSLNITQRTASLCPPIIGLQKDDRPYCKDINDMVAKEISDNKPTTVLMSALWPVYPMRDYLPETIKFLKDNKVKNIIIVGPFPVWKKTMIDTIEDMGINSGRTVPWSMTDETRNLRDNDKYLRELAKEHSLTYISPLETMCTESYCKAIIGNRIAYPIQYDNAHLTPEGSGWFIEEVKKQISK
# T3 sequence (Q8ZNJ3 entry or part of it): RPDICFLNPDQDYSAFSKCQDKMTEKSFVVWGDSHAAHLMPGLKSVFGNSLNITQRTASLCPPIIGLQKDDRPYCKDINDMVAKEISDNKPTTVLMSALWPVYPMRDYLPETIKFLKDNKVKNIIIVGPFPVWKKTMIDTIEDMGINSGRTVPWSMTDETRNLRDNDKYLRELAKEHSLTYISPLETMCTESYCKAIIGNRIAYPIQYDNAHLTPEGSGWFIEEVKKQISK
# T1 sequence (A0A0H2WM30 entry or part of it): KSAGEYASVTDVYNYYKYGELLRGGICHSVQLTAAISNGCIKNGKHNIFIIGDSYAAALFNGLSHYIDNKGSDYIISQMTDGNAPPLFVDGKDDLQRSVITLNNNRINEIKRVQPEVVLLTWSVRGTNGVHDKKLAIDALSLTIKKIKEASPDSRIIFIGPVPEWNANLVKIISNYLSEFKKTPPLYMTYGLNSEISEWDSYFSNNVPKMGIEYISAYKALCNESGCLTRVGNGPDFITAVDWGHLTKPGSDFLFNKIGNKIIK
# T2 sequence (A0A0H2WM30 entry or part of it): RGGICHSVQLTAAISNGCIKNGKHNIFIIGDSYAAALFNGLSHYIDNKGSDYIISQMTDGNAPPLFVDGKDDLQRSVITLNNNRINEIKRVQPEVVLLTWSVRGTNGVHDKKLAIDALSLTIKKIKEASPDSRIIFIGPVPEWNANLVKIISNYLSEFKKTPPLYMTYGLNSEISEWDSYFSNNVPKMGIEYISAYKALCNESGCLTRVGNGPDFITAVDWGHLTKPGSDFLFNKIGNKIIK
smiles,measurement,setting,value
CC(=O)Oc1ccc([N+](=O)[O-])cc1 [p-nitrophenyl acetate],"acetylesterase assay, absorbance at 405 nm, plate reader",OafB-SPA^C-long,all constructs via their ability to hydrolyze the ester substrate p-nitrophenyl acetate (pNP-Ac)
same,"acetylesterase assay, absorbance at 405 nm, plate reader",OafB-SPA^C-short,all constructs via their ability to hydrolyze the ester substrate p-nitrophenyl acetate (pNP-Ac)
same,"acetylesterase assay, absorbance at 405 nm, plate reader",OafA-STM^C-short,all constructs via their ability to hydrolyze the ester substrate p-nitrophenyl acetate (pNP-Ac)
same,"acetylesterase assay, absorbance at 405 nm, plate reader",OafA-STM^C-long,all constructs via their ability to hydrolyze the ester substrate p-nitrophenyl acetate (pNP-Ac)

# Source: PMC7448272, “Acetylation of Surface Carbohydrates in Bacterial Pathogens Requires Coordinated Action of a Two-Domain Membrane-Bound Acyltransferase” (mBio, 2020)
